Test results reported in patent US20220168430A1, “THERAPEUTIC METHODS FOR TREATING HEPATITIS B” (priority 2019, published 2022).
Where two headings read alike, the source gives them in different places.

Key:
HBV genome = assay: IC 50 of HBV siRNA duplexes (Table A); design: species or system Hepatitis B virus; settings: siRNA duplex
HBV DNA [1] = assay: Serum HBV DNA in pHBV1.3 hydrodynamic injection mouse model of HBV (Example 12); type: in vivo, NOD.CB17-Prkdc scid/J mice; HBV genotype D, serotype ayw; settings: once daily oral from Day 0: RNA destabilizer 10 mg/kg, encapsidation inhibitor 100 mg/kg, nucleos(t)ide analog 0.4 mg/kg, group mean ± SEM, n=7 or 8, from negative control
Procedure: (§1) On Day −7, 10 micrograms of the plasmid pHBV1.3 (constructed based on details provided in Guidotti, L., et al., Journal of Virology, 1995, 69(10): 6158-6169) was administered to NOD.CB 17-Prkdc^scid/J mice via hydrodynamic injection (HDI; rapid 1.6 mL injection into the tail vein). […] As readouts of the anti-HBV effect of the treatments, serum HBV DNA and serum HBsAg were assessed. Serum HBV DNA concentration in mice was measured using a quantitative PCR assay following total DNA extraction using previously published primers and probe sequences (Tanaka, Y., et al., Journal of Medical Virology, 2004, 72: 223-229). Serum HBsAg concentration in mice was measured using a commercially available ELISA kit (HBsAg EIA 3.0 480 Test Kit, Bio-Rad).
(§2) Animals were treated with RNA destabilizer as follows: Starting on Day 0, a 10 mg/kg dosage of RNA destabilizer was administered orally to animals on a once-daily frequency for a total of seven doses across the duration of the study. Animals were treated with encapsidation inhibitor as follows: Starting on Day 0, a 100 mg/kg dosage of encapsidation inhibitor was administered orally to animals on a once-daily frequency for a total of seven doses across the duration of the study. Animals were treated with nucleos(t)ide analog as follows: Starting on Day 0, a 0.4 mg/kg dosage of nucleos(t)ide analog was administered orally to animals on a once-daily frequency for a total of seven doses across the duration of the study. The RNA destabilizer, the encapsidation inhibitor, and nucleos(t)ide analog were each dissolved in the same co-solvent formulation for administration and negative control animals were administered the co-solvent formulation alone. To calculate treatment-specific effects, the treated groups are compared against negative control (vehicle treated) animals.
(§3) The effect of these treatments was determined by collecting blood on Days −1 (prior to study's treatment phase), 4, and 7 and analyzing it for serum HBV DNA and HBsAg content.

HBV DNA [2] = type: in vivo, C57BL/6 mice; HBV serotype Ayw, genotype D; settings: group mean ± SEM, n=6
Procedure: (§4) Prior to treatment start, 1×10^11 viral genomes of an adeno-associated virus (AAV) vector carrying a 1.3-fold overlength copy of an HBV genome (serotype Ayw, genotype D) was administered to C57BL/6 mice via intravenous injection. Introduction of this viral vector results in the expression of HBV DNA and HBV surface antigen (HBsAg) amongst other HBV products. Serum HBV DNA levels in mice was measured using a quantitative polymerase chain reaction (QPCR) assay, HBsAg in serum and liver of mice was measured using an enzyme-linked immunosorbent assay (ELISA), and anti-HBsAg antibodies were measured using ELISA.
(§5) Treatment effects on serum HBV DNA were determined by collecting a small amount of blood on Days 0 (pre-treatment) and 14, as well as from terminal blood collections at Day 42. Treatment effects on HBsAg in serum and liver were determined from terminal sample collections at Day 42.
(§6) Any individual animal samples measured to fall below assay lower limit of quantitation (LLOQ) were reported as the LLOQ value.

HBsAg [3] = assay: Serum HBsAg in pHBV1.3 hydrodynamic injection mouse model of HBV (Example 12); type: in vivo, NOD.CB17-Prkdc scid/J mice; HBV genotype D, serotype ayw; settings: for Serum HBsAg log reduction: once daily oral from Day 0: RNA destabilizer 10 mg/kg, encapsidation inhibitor 100 mg/kg, nucleos(t)ide analog 0.4 mg/kg, group mean ± SEM, n=7 or 8, from negative control
Procedure: as §1, §2, §3

HBsAg [4] = assay: Liver HBsAg by ELISA in AAV-HBV mouse model (Example 18); type: in vivo, C57BL/6 mice; HBV serotype Ayw, genotype D; settings: Study Day 42; siRNA 3 mg/kg s.c. Days 0 and 28, encapsidation inhibitor 100 mg/kg and/or TDF 1 mg/kg oral daily Days 0-41; group mean ± SEM, n=6
Procedure: as §4, §5, §6

Row | Molecule | IC50 (HBV genome) [nM] | Serum HBV DNA log reduction (HBV DNA [1]; Day 4) [log] | Serum HBV DNA log reduction (HBV DNA [1]; Day 7) [log] | Serum HBV DNA (HBV DNA [2]; Day 0 (pre-treatment)) [log10 copies/microliter] | Serum HBV DNA (HBV DNA [2]; Day 14, siRNA 3 mg/kg s.c. Days 0 and 28, encapsidation inhibitor 100 mg/kg and/or TDF 1 mg/kg oral daily) [log10 copies/microliter] | Serum HBV DNA (HBV DNA [2]; Day 42, siRNA 3 mg/kg s.c. Days 0 and 28, encapsidation inhibitor 100 mg/kg and/or TDF 1 mg/kg oral daily Days 0-41) [log10 copies/microliter] | Serum HBsAg log reduction (HBsAg [3]; Day 4) [log] | Serum HBsAg log reduction (HBsAg [3]; Day 7) [log] | Liver HBsAg (HBsAg [4]) [log10 IU/mg liver protein] | effect on viral protein production (serum HBsAg biomarker) (HBsAg [3]; mouse, once-daily oral, seven doses)
1 | 13m: "double stranded siRNA molecules selected from the group consisting of 1m, 2m, 3m ... 15m" (sense GCCGAUCCAUACUGCGGAAUU; antisense UUCGGCUAGGUAUGACGCCUU; chemistry not fully specified; one strand is listed 3' to 5') [Compound 13m] | 0.2 | – | – | – | – | – | – | – | – | –
2 | Cn1cnc(COC(=O)N[C@H]2CCc3c(C(=O)Nc4ccc(F)c(Cl)c4)ccc(F)c32)n1 [Encapsidation Inhibitor] | – | 0.94 ± 0.07 | 0.86 ± 0.12 | 4.45 ± 0.13 | 3.89 ± 0.07 | 4.49 ± 0.07 | −0.12 ± 0.03 | 0.07 ± 0.04 | 2.03 ± 0.03 | –
3 | 10m: "double stranded siRNA molecules selected from the group consisting of 1m, 2m, 3m ... 15m" (sense GCCGAUCCAUACUGCGGAAUU; antisense UUCGGCUAGGUAUGACGCCUU; chemistry not fully specified; one strand is listed 3' to 5') [Compound 10m] | 0.34 | – | – | – | – | – | – | – | – | –
4 | COCCCOc1cc2c(nc1OC)-c1cc(=O)c(C(=O)O)cn1[C@H](C(C)C)C2 [RNA destabilizer] | – | 0.48 ± 0.11 | 0.48 ± 0.10 | – | – | – | 0.75 ± 0.03 | 0.86 ± 0.04 | – | reductive effect on viral protein production
